From ChEMBL document CHEMBL6120933, “Improving Anti-HIV activity and pharmacokinetics of enfuvirtide (T20) by modification with oligomannose” (Eur J Med Chem, 2024)

Tested on: Human immunodeficiency virus 1
Assay: Antiviral activity against HIV-1 pseudovirus infected in HEK293T cell transfected with DC-SIGN and luciferase assessed as inhibition of viral entry into cells at 500 uM preincubated with cells for 2 hrs followed by virus addition and measured after 4 hrs by p24 ELISA relative to control
Format: functional
Settings: Human immunodeficiency virus 1, HEK-293T, time 6 hrs

[N-]=[N+]=NCCO[C@H]1O[C@H](CO[C@H]2O[C@H](CO)[C@@H](O)[C@H](O)[C@@H]2O[C@H]2O[C@H](CO)[C@@H](O)[C@H](O)[C@@H]2O)[C@@H](O)[C@H](O[C@H]2O[C@H](CO)[C@@H](O)[C@H](O)[C@@H]2O[C@H]2O[C@H](CO)[C@@H](O)[C@H](O)[C@@H]2O)[C@@H]1O
inhibition at 500 µM: 18%
